Source: patent US8946225B2, “Derivatives of 2H pyridazin-3-ones, their preparation and their use as SCD-1 inhibitors” (Pierre Fabre Medicament, priority 2009, dated 2015)

Key:
SCD-1 = biological target: T1, SCD-1 (Homo sapiens, UniProt O00767); assay: Human enzymatic activity of SCD-1 from microsomes of HepG2 cells (conversion of [14C] stearic acid to oleic acid, HPLC); type: biochemical; details: microsomal fraction of HepG2 cells, 62 μM stearic acid, 20 minutes at 37° C., vs vehicle 0.1% DMSO; read-out: HSCD-1 (HEPG2) IC50
T1 construct: addition of 125 μg of microsomal fraction of HepG2 cells; host or cells: HepG2 human hepatocarcinoma cells (microsomal fraction)
T1 sequence (O00767 1-359): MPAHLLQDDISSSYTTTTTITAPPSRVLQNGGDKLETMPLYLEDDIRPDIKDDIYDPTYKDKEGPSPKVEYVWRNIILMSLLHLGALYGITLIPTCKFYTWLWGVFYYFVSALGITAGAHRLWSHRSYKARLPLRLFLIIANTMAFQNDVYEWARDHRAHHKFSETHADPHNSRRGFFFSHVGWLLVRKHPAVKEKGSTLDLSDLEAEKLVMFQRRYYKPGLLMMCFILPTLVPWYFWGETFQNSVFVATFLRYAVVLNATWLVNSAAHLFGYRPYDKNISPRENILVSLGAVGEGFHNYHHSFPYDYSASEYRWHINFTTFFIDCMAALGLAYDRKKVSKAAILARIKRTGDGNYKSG
Procedure: In vitro: Human enzymatic activity of SCD-1 from microsomes of HepG2 cells after treatment with the inhibitor compounds (% inhibition).
HepG2 cells of human hepatocarcinoma (ATCC, HB-8065) are cultured at confluence then trypsinated. The cell residue is solubilized in 10 mM Tris buffer (pH 7.4) sucrose (250 mM) DTT (1 mM) then the cells are lysed by sonication. The microsomes are obtained after centrifuging at 10,000 g for 20 minutes at 4° C. followed by centifrugation of the supernatant at 100,000 g for 60 minutes at 4° C. The residue is solubilized in 10 mM Tris buffer (pH 7.4) sucrose (250 mM) at 4° C. and the microsomal proteins are assayed and stored at −196° C. (liquid nitrogen).
The enzymatic reaction measures the conversion of stearic acid (C18:0 fatty acid) into oleic acid (C18:1 fatty acid) by SCD-1. The enzymatic reaction is initiated by the addition of 125 μg of microsomal fraction of HepG2 cells to tubes (total reaction volume of 500 μl) containing 62 μM stearic acid (45 μM stearic acid and 17 μM [^14C] stearic acid) in 100 mM phosphate buffer (pH 7.16) with 7.2 mM ATP, 0.54 mM CoA, 6 mM MgCl2, 0.8 mM NADH and the inhibitor compound or vehicle (0.1% DMSO). The tubes are incubated for 20 minutes at 37° C. then the enzymatic reaction is halted by the addition of KOH (12%) and saponification for 30 minutes at 80° C. After acidification (3N HCl), the fatty acids are extracted twice with ethyl ether, evaporated under nitrogen before being solubilized in methanol/dichloromethane (3:1). The reaction product (C18:1) is separated from the reaction substrate (C18:0) by HPLC (Perkin Elmer, C18 reverse phase column) coupled with an in-line radioactivity detector (FlowOne). Enzymatic activity is measured in picomoles of stearic acid converted to oleic acid per minute and per mg of protein. For each inhibitor compound, an IC50 value is determined, compared with the reference enzymatic activity (vehicle 0.1% DMSO). Sterculic acid is the reference inhibitor compound (Gomez F. E., Bauman D. E., Ntambi J. M., Fox B. G. Effects of sterculic acid on stearoyl-CoA desaturase in differentiating […] adipocytes. Biochem Biophys Res Commun. 300 316-326 (2003).

IC50 (SCD-1) [nM]	melting point [°C]	SMILES
10 to 100	145	Cn1nccc(NC(=O)N2CCC(Oc3cc(F)ccc3C(F)(F)F)CC2)c1=O [Example 61, 4-(5-fluoro-2-trifluoromethyl-phenoxy)-piperidine-1-carboxylic acid (2-methyl-3-oxo-2,3-dihydro-pyridazin-4-yl)-amide]
30	124	Cn1nccc(NC(=O)N2CCC(Oc3cc(Br)ccc3Cl)CC2)c1=O [Example 63, 4-(2-chloro-5-bromo-phenoxy)-piperidine-1-carboxylic acid (2-methyl-3-oxo-2,3-dihydro-pyridazin-4-yl)-amide]
30 to 100	140	Cn1nccc(NCC(=O)N2CCC(Oc3cc(F)ccc3C(F)(F)F)CC2)c1=O [Example 2, 4-{2-[4-(5-Fluoro-2-trifluoromethyl-phenoxy)-piperidin-1-yl]-2-oxo-ethylamino}-2-methyl-2H-pyridazin-3-one]
100 to 1000	50	Cn1nccc(NCC(=O)N2CCC(Oc3ccccc3C(F)(F)F)CC2)c1=O [Example 1, 2-Methyl-4-{2-oxo-2-[4-(2-trifluoromethyl-phenoxy)-piperidin-1-yl]-ethylamino}-2H-pyridazin-3-one]
30 to 100	183	Cn1nccc(NCC(=O)N2CCC(COc3cc(C(F)(F)F)ccc3Cl)C2)c1=O (centres unmarked) [Example 34, 4-{2-[3-(2-Chloro-5-trifluoromethyl-phenoxymethyl)-pyrrolidin-1-yl]-2-oxo-ethylamino}-2-methyl-2H-pyridazin-3-one]
100 to 1000	142	Cc1ccc(F)cc1OC1CCN(C(=O)Nc2ccnn(C)c2=O)CC1 [Example 68, 4-(5-fluoro-2-methyl-phenoxy)-piperidine-1-carboxylic acid (2-methyl-3-oxo-2,3-dihydro-pyridazin-4-yl)-amide]
100 to 300	152	Cn1nccc(NCC(=O)N2CCC(Oc3ccc(Cl)cc3Cl)CC2)c1=O [Example 11, 4-{2-[4-(2,4-Dichloro-phenoxy)-piperidin-1-yl]-2-oxo-ethylamino}-2-methyl-2H-pyridazin-3-one]
10 to 100	104	Cc1ccc(C(C)C)cc1OC1CCN(C(=O)Nc2ccnn(C)c2=O)CC1 [Example 57, 4-(2-methyl-5-isopropyl-phenoxy)-pipéridine-1-carboxylic acid (2-methyl-3-oxo-2,3-dihydro-pyridazin-4-yl)-amide]
100 to 1000	175	Cn1nccc(NCC(=O)N2CCC(Oc3cc(F)cc(C(F)(F)F)c3)CC2)c1=O [Example 3, 4-{2-[4-(3-Fluoro-5-trifluoromethyl-phenoxy)-piperidin-1-yl]-2-oxo-ethylamino}-2-methyl-2H-pyridazin-3-one]
10 to 100	101	Cn1nccc(NC(=O)N2CCC(Oc3cccc(C(F)(F)F)c3)CC2)c1=O [Example 58, 4-(5-trifluoromethyl-phenoxy)-piperidine-1-carboxylic acid (2-methyl-3-oxo-2,3-dihydro-pyridazin-4-yl)-amide]
30 to 100	102	Cn1nccc(NC(=O)N2CCC(Oc3cc(C(F)(F)F)ccc3F)CC2)c1=O [Example 54, 4-(2-fluoro-5-trifluoromethyl-phenoxy)-piperidine-1-carboxylic acid (2-methyl-3-oxo-2,3-dihydro-pyridazin-4-yl)-amide]
100 to 1000	162	Cn1nccc(NCC(=O)N2CCC(Oc3cc([N+](=O)[O-])ccc3Cl)CC2)c1=O [Example 9, 4-{2-[4-(2-Chloro-5-nitro-phenoxy)-piperidin-1-yl]-2-oxo-ethylamino}-2-methyl-2H-pyridazin-3-one]
300 to 1000	154	Cn1nccc(/C=C/C(=O)N2CCC(Oc3cc(C(F)(F)F)ccc3Cl)CC2)c1=O [Example 36, 4-{(E)-3-[4-(2-Chloro-5-trifluoromethyl-phenoxy)-piperidin-1-yl]-3-oxo-propenyl}-2-methyl-2H-pyridazin-3-one]
